Results reported in PubChem BioAssay AID1963875 (Molecular Pharmacology Branch, DTP, NCI, 2024).
pIC50: −log10 of the molar value.

Tested on: KRAS-mutant PDC complex spheroid viability
Experiment: Anticancer human tumor 186277-243-T-J2-PDC patient-derived colon adenocarcinoma cell line growth inhibition [KRAS2]
Conditions: for pIC50: curve of first compound; for viability, T/C: stronger effect = lower value
Summary of the method: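 Combination screen of spheroid viability in tumor-cell co-cultures with endothelial (HUVEC) and mesenchymal stem cell stroma. Each agent was tested in half-log dilutions, topping at clinical Cmax or at 10 microM without a known Cmax.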

[1] = second compound 0.1 µM, first compound 0.0316 µM
[2] = second compound 0.1 µM, first compound 0.1 µM
[3] = second compound 0.316 µM, first compound 0.0316 µM
[4] = second compound 0.316 µM, first compound 0.1 µM
[5] = second compound 1 µM, first compound 0.0316 µM
[6] = second compound 1 µM, first compound 0.1 µM
[7] = second compound 3.16 µM, first compound 0.0316 µM
[8] = second compound 3.16 µM, first compound 0.1 µM
[9] = second compound 10 µM, first compound 0.0316 µM
[10] = second compound 10 µM, first compound 0.1 µM
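Wherever viability, T/C is given: viability read after seven days of compound exposure; 100% = DMSO vehicle-treated spheroids so lower means less viable.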

Q: With `CC(C)n1nc(-c2ccc3oc(N)nc3c2)c2c(N)ncnc21` + CNCc1ccccc1-c1csc(C(C)Nc2nc(C)nc3cc(OC)c(OC)cc23)c1 as the compound, how does the pIC50 (second compound 0.1 µM) read?
A: 8.25

Q: What about the pIC50 (second compound 0.316 µM) of the same compound?
A: 8.40

Q: What about the pIC50 (second compound 1 µM) of the same compound?
A: 8.30

Q: What about the pIC50 (second compound 3.16 µM) of the same compound?
A: 8.93

Q: And the pIC50 (second compound 10 µM)?
A: > 9.50

Q: What about the viability, T/C (second compound 0.1 µM, first compound 0.000316 µM) of the same compound?
A: 108%

Q: And the viability, T/C (second compound 0.1 µM, first compound 0.001 µM)?
A: 92.5%

Q: And the viability, T/C (second compound 0.1 µM, first compound 0.00316 µM)?
A: 57%

Q: What about the viability, T/C (second compound 0.1 µM, first compound 0.01 µM) of the same compound?
A: 40.3%

Q: What about the viability, T/C [1] of the same compound?
A: 28.6%

Q: What about the viability, T/C [2] of the same compound?
A: 16.6%

Q: And the viability, T/C (second compound 0.316 µM, first compound 0.000316 µM)?
A: 98.8%

Q: What about the viability, T/C (second compound 0.316 µM, first compound 0.001 µM) of the same compound?
A: 80.8%

Q: What about the viability, T/C (second compound 0.316 µM, first compound 0.00316 µM) of the same compound?
A: 54.7%

Q: What about the viability, T/C (second compound 0.316 µM, first compound 0.01 µM) of the same compound?
A: 32.9%

Q: What about the viability, T/C [3] of the same compound?
A: 23.4%

Q: And the viability, T/C [4]?
A: 19.7%

Q: What about the viability, T/C (second compound 1 µM, first compound 0.000316 µM) of the same compound?
A: 96.3%

Q: And the viability, T/C (second compound 1 µM, first compound 0.001 µM)?
A: 88.8%

Q: What about the viability, T/C (second compound 1 µM, first compound 0.00316 µM) of the same compound?
A: 55.8%

Q: And the viability, T/C (second compound 1 µM, first compound 0.01 µM)?
A: 37.7%

Q: And the viability, T/C [5]?
A: 22.9%

Q: What about the viability, T/C [6] of the same compound?
A: 14.9%

Q: What about the viability, T/C (second compound 3.16 µM, first compound 0.000316 µM) of the same compound?
A: 63.9%

Q: And the viability, T/C (second compound 3.16 µM, first compound 0.001 µM)?
A: 55.9%

Q: And the viability, T/C (second compound 3.16 µM, first compound 0.00316 µM)?
A: 14%

Q: What about the viability, T/C (second compound 3.16 µM, first compound 0.01 µM) of the same compound?
A: 16.8%

Q: What about the viability, T/C [7] of the same compound?
A: 8.24%

Q: And the viability, T/C [8]?
A: 1.61%

Q: What about the viability, T/C (second compound 10 µM, first compound 0.000316 µM) of the same compound?
A: 0.14%

Q: And the viability, T/C (second compound 10 µM, first compound 0.001 µM)?
A: 0.13%

Q: And the viability, T/C (second compound 10 µM, first compound 0.00316 µM)?
A: 0.11%

Q: What about the viability, T/C (second compound 10 µM, first compound 0.01 µM) of the same compound?
A: 0.1%

Q: And the viability, T/C [9]?
A: 0.1%

Q: What about the viability, T/C [10] of the same compound?
A: 0.16%

Q: With `CC1COCCN1c1cc(-c2ccnn2C)c2ccnc(-c3ccn[nH]3)c2n1` (stereo not given) as the compound, how does the viability, T/C (compound 0.0316 µM) read?
A: 29.2% [middle of 5 runs]

Q: What about the viability, T/C (compound 0.1 µM) of the same compound?
A: 7.22% [middle of 5 runs]

Q: And the viability, T/C (compound 0.316 µM)?
A: 4.63% [middle of 5 runs]

Q: And the viability, T/C (compound 1 µM)?
A: 3.65% [middle of 5 runs]

Q: What about the viability, T/C (compound 3.16 µM) of the same compound?
A: 4.09% [middle of 5 runs]

Q: How did the pIC50 (second compound 0.1 µM) turn out when `Cn1nccc1Nc1nccc(-c2cc3c(s2)C(C)(C)N(CCN2CCOCC2)C3=O)n1` + COc1cc2nc(C)nc(NC(C)c3cc(N)cc(C(F)(F)F)c3)c2cc1OC1CCOC1 was run?
A: 6.58

Q: And the pIC50 (second compound 0.316 µM)?
A: 6.52

Q: And the pIC50 (second compound 1 µM)?
A: 6.66

Q: What about the pIC50 (second compound 3.16 µM) of the same compound?
A: 6.71

Q: And the pIC50 (second compound 10 µM)?
A: 7.12

Q: And the viability, T/C [1]?
A: 90.7%

Q: What about the viability, T/C [2] of the same compound?
A: 105%

Q: What about the viability, T/C (second compound 0.1 µM, first compound 0.316 µM) of the same compound?
A: 41.4%

Q: What about the viability, T/C (second compound 0.1 µM, first compound 1 µM) of the same compound?
A: 9.64%

Q: And the viability, T/C (second compound 0.1 µM, first compound 3.16 µM)?
A: 5.24%

Q: What about the viability, T/C (second compound 0.1 µM, first compound 10 µM) of the same compound?
A: 5.34%

Q: And the viability, T/C [3]?
A: 93.1%

Q: What about the viability, T/C [4] of the same compound?
A: 97.9%

Q: What about the viability, T/C (second compound 0.316 µM, first compound 0.316 µM) of the same compound?
A: 48%

Q: What about the viability, T/C (second compound 0.316 µM, first compound 1 µM) of the same compound?
A: 9%

Q: What about the viability, T/C (second compound 0.316 µM, first compound 3.16 µM) of the same compound?
A: 4.51%

Q: And the viability, T/C (second compound 0.316 µM, first compound 10 µM)?
A: 4.67%

Q: And the viability, T/C [5]?
A: 92.2%

Q: What about the viability, T/C [6] of the same compound?
A: 100%

Q: What about the viability, T/C (second compound 1 µM, first compound 0.316 µM) of the same compound?
A: 28.7%

Q: And the viability, T/C (second compound 1 µM, first compound 1 µM)?
A: 6.92%

Q: What about the viability, T/C (second compound 1 µM, first compound 3.16 µM) of the same compound?
A: 3.64%

Q: What about the viability, T/C (second compound 1 µM, first compound 10 µM) of the same compound?
A: 4.79%

Q: What about the viability, T/C [7] of the same compound?
A: 91.6%

Q: What about the viability, T/C [8] of the same compound?
A: 85.6%

Q: What about the viability, T/C (second compound 3.16 µM, first compound 0.316 µM) of the same compound?
A: 23.2%

Q: And the viability, T/C (second compound 3.16 µM, first compound 1 µM)?
A: 7.66%

Q: And the viability, T/C (second compound 3.16 µM, first compound 3.16 µM)?
A: 4.43%

Q: What about the viability, T/C (second compound 3.16 µM, first compound 10 µM) of the same compound?
A: 4.37%

Q: And the viability, T/C [9]?
A: 86.1%

Q: What about the viability, T/C [10] of the same compound?
A: 38.5%

Q: And the viability, T/C (second compound 10 µM, first compound 0.316 µM)?
A: 4.06%

Q: What about the viability, T/C (second compound 10 µM, first compound 1 µM) of the same compound?
A: 1.74%

Q: What about the viability, T/C (second compound 10 µM, first compound 3.16 µM) of the same compound?
A: 0.34%

Q: What about the viability, T/C (second compound 10 µM, first compound 10 µM) of the same compound?
A: 0.22%
